Measurements published in ChEMBL document CHEMBL2169877, “Antagonists of 5-HT₆ receptors. Substituted 3-(phenylsulfonyl)pyrazolo[1,5-a]pyrido[3,4-e]pyrimidines and 3-(phenylsulfonyl)pyrazolo[1,5-a]pyrido[4,3-d]pyrimidines-Synthesis and 'structure-activity' relationship” (Bioorg Med Chem Lett, 2012).
The source made the active and inactive calls. No cut-off for these calls is given here.

Assays:
[1] = molecular target: T1, 5-hydroxytryptamine receptor 6 (Homo sapiens, UniProt P50406); test: Displacement of [3H]lysergic acid diethylamide from human recombinant 5HT6 receptor expressed in HeLa cells after 120 mins; type: cell-based
T1 sequence (P50406 whole entry): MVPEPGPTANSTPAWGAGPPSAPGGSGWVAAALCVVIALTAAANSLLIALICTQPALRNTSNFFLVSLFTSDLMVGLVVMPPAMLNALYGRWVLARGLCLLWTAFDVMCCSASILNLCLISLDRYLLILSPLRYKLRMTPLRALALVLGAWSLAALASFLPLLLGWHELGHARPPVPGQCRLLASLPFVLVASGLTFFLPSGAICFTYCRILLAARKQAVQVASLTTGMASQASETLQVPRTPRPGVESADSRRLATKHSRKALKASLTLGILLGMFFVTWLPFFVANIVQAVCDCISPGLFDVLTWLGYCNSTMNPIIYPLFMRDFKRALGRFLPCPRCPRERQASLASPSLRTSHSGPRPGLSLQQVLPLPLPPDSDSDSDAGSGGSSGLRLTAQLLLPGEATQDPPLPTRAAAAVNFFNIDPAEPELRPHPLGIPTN

[2] = molecular target: T2, 5-hydroxytryptamine receptor 2B (Homo sapiens, UniProt P41595); test: Agonist activity at human recombinant 5HT2B receptor expressed in HEK293 cells assessed as increase in intracellular calcium mobilization by Fluo4-based staining method; type: functional, cell-based
T2 sequence (P41595 whole entry): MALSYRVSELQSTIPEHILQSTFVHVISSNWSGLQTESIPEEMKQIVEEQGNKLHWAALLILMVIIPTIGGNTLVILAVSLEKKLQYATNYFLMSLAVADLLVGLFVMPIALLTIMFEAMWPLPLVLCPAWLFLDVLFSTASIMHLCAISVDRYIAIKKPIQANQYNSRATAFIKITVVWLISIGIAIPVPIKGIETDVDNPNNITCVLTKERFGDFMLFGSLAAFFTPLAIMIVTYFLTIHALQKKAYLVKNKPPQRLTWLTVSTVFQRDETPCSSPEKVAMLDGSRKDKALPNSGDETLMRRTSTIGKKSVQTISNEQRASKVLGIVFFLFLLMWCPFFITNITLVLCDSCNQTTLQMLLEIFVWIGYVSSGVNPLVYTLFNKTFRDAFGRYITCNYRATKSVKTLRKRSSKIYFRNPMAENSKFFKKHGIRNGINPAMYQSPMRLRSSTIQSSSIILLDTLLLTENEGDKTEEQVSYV

[3] = molecular target: Voltage-gated inwardly rectifying potassium channel KCNH2 (Homo sapiens, UniProt Q12809); test: Inhibition of human recombinant ERG channel expressed in […] cells after 3 to 8 mins by voltage clamp assay; type: cell-based
[4] = molecular target: T2, 5-hydroxytryptamine receptor 2B; test: Antagonist activity at human recombinant 5HT2B receptor expressed in HEK293 cells assessed as inhibition of alphamethyl5HT-induced intracellular calcium mobilization by Fluo4-based staining method; type: functional, cell-based
[5] = molecular target: T1, 5-hydroxytryptamine receptor 6; test: Antagonist activity at human recombinant 5HT6 receptor expressed in […] cells assessed as inhibition of serotonin-induced cAMP accumulation after 2 hrs; type: functional, cell-based, HEK293
[6] = molecular target: T2, 5-hydroxytryptamine receptor 2B; test: Displacement of [3H]lysergic acid diethylamide from human recombinant 5HT2B receptor at 1 uM
[7] = molecular target: Histamine H2 receptor (Homo sapiens) (UniProt P25021); test: Binding affinity to histamine receptor H2 at 1 uM by radioligand displacement assay
Chain of Histamine H2 receptor (Homo sapiens) (P25021 whole entry): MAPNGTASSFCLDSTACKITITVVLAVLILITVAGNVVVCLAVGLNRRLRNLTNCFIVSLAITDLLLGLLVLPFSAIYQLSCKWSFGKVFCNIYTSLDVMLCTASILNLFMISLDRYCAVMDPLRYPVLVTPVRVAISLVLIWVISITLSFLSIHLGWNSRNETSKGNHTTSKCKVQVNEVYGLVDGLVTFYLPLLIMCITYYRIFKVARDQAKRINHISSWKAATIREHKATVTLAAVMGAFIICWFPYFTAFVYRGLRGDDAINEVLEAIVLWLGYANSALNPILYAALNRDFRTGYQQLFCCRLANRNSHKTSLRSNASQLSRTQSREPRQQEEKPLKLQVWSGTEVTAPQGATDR

[8] = molecular target: 5-hydroxytryptamine receptor 5A (Homo sapiens) (UniProt P47898); test: Binding affinity to 5HT5 receptor at 1 uM by radioligand displacement assay
Chain of 5-hydroxytryptamine receptor 5A (Homo sapiens) (P47898 whole entry): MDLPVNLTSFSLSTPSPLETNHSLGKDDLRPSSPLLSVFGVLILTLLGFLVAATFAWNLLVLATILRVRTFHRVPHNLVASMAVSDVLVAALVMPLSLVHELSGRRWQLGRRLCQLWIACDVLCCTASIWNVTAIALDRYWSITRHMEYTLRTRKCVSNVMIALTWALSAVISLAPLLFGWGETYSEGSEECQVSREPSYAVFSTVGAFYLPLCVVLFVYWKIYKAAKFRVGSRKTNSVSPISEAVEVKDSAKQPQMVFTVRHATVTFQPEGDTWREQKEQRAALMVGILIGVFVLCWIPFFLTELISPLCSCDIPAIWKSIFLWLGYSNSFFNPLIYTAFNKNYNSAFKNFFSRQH

[9] = molecular target: Cannabinoid receptor 2 (Homo sapiens) (UniProt P34972); test: Binding affinity to CB2 receptor at 1 uM by radioligand displacement assay
Chain of Cannabinoid receptor 2 (Homo sapiens) (P34972 whole entry): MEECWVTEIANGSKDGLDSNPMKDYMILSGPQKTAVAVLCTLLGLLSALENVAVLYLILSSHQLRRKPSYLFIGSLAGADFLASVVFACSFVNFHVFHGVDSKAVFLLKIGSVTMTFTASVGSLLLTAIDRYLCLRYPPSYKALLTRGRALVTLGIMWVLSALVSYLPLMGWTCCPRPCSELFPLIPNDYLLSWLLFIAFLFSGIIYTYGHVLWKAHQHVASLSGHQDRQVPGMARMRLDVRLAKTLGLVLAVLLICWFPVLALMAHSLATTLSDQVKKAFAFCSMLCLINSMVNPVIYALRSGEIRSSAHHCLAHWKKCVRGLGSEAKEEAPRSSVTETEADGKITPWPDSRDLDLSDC

[10] = molecular target: Nitric oxide synthase, inducible (Homo sapiens) (UniProt P35228); test: Binding affinity to iNOS at 1 uM by radioligand displacement assay
[11] = molecular target: Adenosine receptor A1 (Homo sapiens) (UniProt P30542); test: Binding affinity to adenosine A1 receptor at 1 uM by radioligand displacement assay
[12] = Binding affinity to choline transporter at 1 uM by radioligand displacement assay
[13] = Binding affinity to P2X receptor at 1 uM by radioligand displacement assay
[14] = molecular target: Adenosine receptor A2a (Homo sapiens) (UniProt P29274); test: Binding affinity to adenosine A2A receptor at 1 uM by radioligand displacement assay
[15] = Binding affinity to L-type calcium channel phenylalkylamine binding site at 1 uM by radioligand displacement assay
[16] = molecular target: Metabotropic glutamate receptor 5 (Homo sapiens) (UniProt P41594); test: Binding affinity to mGluR5 at 1 uM by radioligand displacement assay
[17] = molecular target: Alpha-2B adrenergic receptor (Homo sapiens) (UniProt P18089); test: Binding affinity to alpha2B adrenergic receptor at 1 uM by radioligand displacement assay
[18] = molecular target: Beta-2 adrenergic receptor (Homo sapiens) (UniProt P07550); test: Binding affinity to beta2 adrenergic receptor at 1 uM by radioligand displacement assay
[19] = molecular target: Alpha-1B adrenergic receptor (Homo sapiens) (UniProt P35368); test: Binding affinity to alpha1B adrenergic receptor at 1 uM by radioligand displacement assay
[20] = Binding affinity to glycine transporter at 1 uM by radioligand displacement assay
[21] = molecular target: Cannabinoid receptor 1 (Homo sapiens) (UniProt P21554); test: Binding affinity to CB1 receptor at 1 uM by radioligand displacement assay
[22] = molecular target: Beta-1 adrenergic receptor (Homo sapiens) (UniProt P08588); test: Binding affinity to beta1 adrenergic receptor at 1 uM by radioligand displacement assay
[23] = molecular target: D(2) dopamine receptor (Homo sapiens) (UniProt P14416); test: Binding affinity to dopamine D2L receptor at 1 uM by radioligand displacement assay
Chain of D(2) dopamine receptor (Homo sapiens) (P14416 whole entry): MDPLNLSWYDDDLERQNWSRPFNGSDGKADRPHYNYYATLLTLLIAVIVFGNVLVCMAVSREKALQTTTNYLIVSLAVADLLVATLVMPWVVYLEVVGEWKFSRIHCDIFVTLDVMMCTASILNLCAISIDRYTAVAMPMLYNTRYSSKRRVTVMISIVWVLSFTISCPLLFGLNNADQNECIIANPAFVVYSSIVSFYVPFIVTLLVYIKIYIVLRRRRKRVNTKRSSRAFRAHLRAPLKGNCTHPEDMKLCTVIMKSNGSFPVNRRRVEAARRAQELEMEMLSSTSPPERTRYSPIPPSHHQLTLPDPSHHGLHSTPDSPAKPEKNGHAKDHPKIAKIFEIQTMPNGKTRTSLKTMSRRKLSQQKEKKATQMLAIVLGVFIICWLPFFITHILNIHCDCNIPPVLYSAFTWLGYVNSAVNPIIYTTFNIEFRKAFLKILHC

[24] = Binding affinity to PDE1 at 1 uM by radioligand displacement assay
[25] = molecular target: RAC-alpha serine/threonine-protein kinase (Homo sapiens) (UniProt P31749); test: Binding affinity to AKT1 at 1 uM by radioligand displacement assay
[26] = Binding affinity to PKC at 1 uM by radioligand displacement assay
[27] = molecular target: Glycogen synthase kinase-3 beta (Homo sapiens) (UniProt P49841); test: Binding affinity to GSK3beta at 1 uM by radioligand displacement assay
[28] = molecular target: 5-hydroxytryptamine receptor 4 (Homo sapiens) (UniProt Q13639); test: Binding affinity to 5HT4 receptor at 1 uM by radioligand displacement assay
[29] = molecular target: Amine oxidase [flavin-containing] B (Homo sapiens, UniProt P27338); test: Binding affinity to MAO-B at 1 uM by radioligand displacement assay
[30] = molecular target: Muscarinic acetylcholine receptor M2 (Homo sapiens) (UniProt P08172); test: Binding affinity to M2 receptor at 1 uM by radioligand displacement assay
[31] = molecular target: Cyclin-dependent kinase 1/cyclin B1 (Homo sapiens) (UniProt P06493+P14635); test: Binding affinity to CDK1/cyclin B at 1 uM by radioligand displacement assay; type: protein-complex assay
[32] = molecular target: Amine oxidase [flavin-containing] A (Homo sapiens, UniProt P21397); test: Binding affinity to MAO-A at 1 uM by radioligand displacement assay
[33] = molecular target: 5-hydroxytryptamine receptor 1B (Homo sapiens) (UniProt P28222); test: Binding affinity to 5HT1B receptor at 1 uM by radioligand displacement assay
Chain of 5-hydroxytryptamine receptor 1B (Homo sapiens) (P28222 whole entry): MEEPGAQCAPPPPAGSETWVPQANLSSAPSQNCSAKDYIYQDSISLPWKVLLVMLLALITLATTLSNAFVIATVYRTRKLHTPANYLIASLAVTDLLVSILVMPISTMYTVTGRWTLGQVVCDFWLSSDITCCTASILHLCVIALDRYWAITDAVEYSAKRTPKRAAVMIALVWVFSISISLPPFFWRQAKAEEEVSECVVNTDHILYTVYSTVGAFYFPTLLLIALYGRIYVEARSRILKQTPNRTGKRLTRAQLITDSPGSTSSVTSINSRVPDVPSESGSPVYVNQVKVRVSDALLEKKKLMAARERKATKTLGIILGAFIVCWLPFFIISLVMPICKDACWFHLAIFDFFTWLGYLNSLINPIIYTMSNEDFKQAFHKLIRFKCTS

[34] = molecular target: Corticotropin-releasing factor receptor 1 (Homo sapiens) (UniProt P34998); test: Binding affinity to CRF1R at 1 uM by radioligand displacement assay
[35] = Binding affinity to GABA(A) receptor TBOB binding site at 1 uM by radioligand displacement assay
[36] = Binding affinity to adenosine transporter at 1 uM by radioligand displacement assay
[37] = Binding affinity to GABA(A) receptor TBOP binding site at 1 uM by radioligand displacement assay
[38] = Binding affinity to GABA-B receptor at 1 uM by radioligand displacement assay
[39] = molecular target: Adenosine receptor A3 (Homo sapiens) (UniProt P0DMS8); test: Binding affinity to adenosine A3 receptor at 1 uM by radioligand displacement assay
[40] = molecular target: cAMP and cAMP-inhibited cGMP 3',5'-cyclic phosphodiesterase 10A (Homo sapiens) (UniProt Q9Y233); test: Binding affinity to PDE10A1 at 1 uM by radioligand displacement assay
[41] = molecular target: 5-hydroxytryptamine receptor 3A (Homo sapiens) (UniProt P46098); test: Binding affinity to 5HT3 receptor at 1 uM by radioligand displacement assay
[42] = molecular target: Alpha-2A adrenergic receptor (Homo sapiens) (UniProt P08913); test: Binding affinity to alpha2A adrenergic receptor at 1 uM by radioligand displacement assay
[43] = Binding affinity to PDE2 at 1 uM by radioligand displacement assay
[44] = molecular target: D(3) dopamine receptor (Homo sapiens) (UniProt P35462); test: Binding affinity to dopamine D3 receptor at 1 uM by radioligand displacement assay
[45] = molecular target: D(1A) dopamine receptor (Homo sapiens) (UniProt P21728); test: Binding affinity to dopamine D1 receptor at 1 uM by radioligand displacement assay
Chain of D(1A) dopamine receptor (Homo sapiens) (P21728 whole entry): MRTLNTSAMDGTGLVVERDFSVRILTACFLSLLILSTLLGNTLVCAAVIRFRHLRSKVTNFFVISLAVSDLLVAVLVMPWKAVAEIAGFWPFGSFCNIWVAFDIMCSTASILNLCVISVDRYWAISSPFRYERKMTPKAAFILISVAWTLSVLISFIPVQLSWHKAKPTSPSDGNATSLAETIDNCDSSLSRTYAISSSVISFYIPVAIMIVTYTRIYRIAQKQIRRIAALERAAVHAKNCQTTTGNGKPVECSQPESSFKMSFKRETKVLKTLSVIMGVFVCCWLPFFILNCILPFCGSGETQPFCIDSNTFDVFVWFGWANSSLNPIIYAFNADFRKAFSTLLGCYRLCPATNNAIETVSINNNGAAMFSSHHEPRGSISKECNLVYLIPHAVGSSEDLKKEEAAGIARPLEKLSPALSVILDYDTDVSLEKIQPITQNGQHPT

[46] = molecular target: Sodium-dependent dopamine transporter (Homo sapiens) (UniProt Q01959); test: Binding affinity to DAT at 1 uM by radioligand displacement assay
[47] = Binding affinity to PDE4 at 1 uM by radioligand displacement assay
[48] = molecular target: Acetylcholinesterase (Homo sapiens) (UniProt P22303); test: Binding affinity to AChE at 1 uM by radioligand displacement assay
[49] = Binding affinity to Glutamate receptor at 1 uM by radioligand displacement assay
[50] = molecular target: Histamine H3 receptor (Homo sapiens) (UniProt Q9Y5N1); test: Binding affinity to histamine receptor H3 at 1 uM by radioligand displacement assay
Chain of Histamine H3 receptor (Homo sapiens) (Q9Y5N1 whole entry): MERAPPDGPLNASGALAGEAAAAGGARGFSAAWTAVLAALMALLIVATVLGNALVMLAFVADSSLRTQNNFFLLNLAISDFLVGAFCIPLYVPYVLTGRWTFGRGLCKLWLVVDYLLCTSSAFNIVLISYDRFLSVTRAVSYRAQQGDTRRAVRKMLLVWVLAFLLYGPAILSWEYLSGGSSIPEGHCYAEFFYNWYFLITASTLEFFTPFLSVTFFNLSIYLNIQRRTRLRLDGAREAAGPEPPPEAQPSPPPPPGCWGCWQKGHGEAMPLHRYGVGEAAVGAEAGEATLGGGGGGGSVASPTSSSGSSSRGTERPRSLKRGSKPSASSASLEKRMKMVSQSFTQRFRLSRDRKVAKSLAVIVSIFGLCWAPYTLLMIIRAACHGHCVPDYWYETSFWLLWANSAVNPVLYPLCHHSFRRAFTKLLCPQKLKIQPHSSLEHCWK

[51] = molecular target: Sodium-dependent serotonin transporter (Homo sapiens) (UniProt P31645); test: Binding affinity to serotonin transporter at 1 uM by radioligand displacement assay
Chain of Sodium-dependent serotonin transporter (Homo sapiens) (P31645 whole entry, looked up): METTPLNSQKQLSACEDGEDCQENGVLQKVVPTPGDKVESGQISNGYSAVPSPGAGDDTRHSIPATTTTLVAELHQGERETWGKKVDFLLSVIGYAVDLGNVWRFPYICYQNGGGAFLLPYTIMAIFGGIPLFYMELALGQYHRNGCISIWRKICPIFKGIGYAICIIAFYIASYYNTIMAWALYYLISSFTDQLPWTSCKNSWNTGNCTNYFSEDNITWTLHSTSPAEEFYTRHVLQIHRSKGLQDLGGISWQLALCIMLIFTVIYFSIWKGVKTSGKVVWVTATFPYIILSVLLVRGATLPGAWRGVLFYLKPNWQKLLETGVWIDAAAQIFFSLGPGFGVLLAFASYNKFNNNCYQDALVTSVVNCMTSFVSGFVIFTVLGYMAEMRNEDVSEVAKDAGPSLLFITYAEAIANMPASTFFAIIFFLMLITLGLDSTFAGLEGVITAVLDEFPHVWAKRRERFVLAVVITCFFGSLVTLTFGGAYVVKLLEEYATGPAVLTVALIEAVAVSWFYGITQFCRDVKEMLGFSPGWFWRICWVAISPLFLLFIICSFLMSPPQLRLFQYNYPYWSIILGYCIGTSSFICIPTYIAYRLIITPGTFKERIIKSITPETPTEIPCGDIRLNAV

[52] = Binding affinity to GABA transporter at 1 uM by radioligand displacement assay
[53] = molecular target: D(2) dopamine receptor (Homo sapiens) (UniProt P14416); test: Binding affinity to dopamine D2S receptor at 1 uM by radioligand displacement assay
[54] = molecular target: Cyclin-dependent kinase 2/cyclin A (Homo sapiens) (UniProt P24941+P20248+P78396); test: Binding affinity to CDK2/cyclin A at 1 uM by radioligand displacement assay; type: protein-complex assay
[55] = molecular target: Muscarinic acetylcholine receptor M1 (Homo sapiens) (UniProt P11229); test: Binding affinity to M1 receptor at 1 uM by radioligand displacement assay
[56] = molecular target: Cyclin-dependent kinase 5/CDK5 activator 1 (Homo sapiens) (UniProt Q00535+Q15078); test: Binding affinity to cdk5/p35 at 1 uM by radioligand displacement assay; type: protein-complex assay
Chain of Cyclin-dependent kinase 5/CDK5 activator 1 (Homo sapiens) (Q00535 whole entry): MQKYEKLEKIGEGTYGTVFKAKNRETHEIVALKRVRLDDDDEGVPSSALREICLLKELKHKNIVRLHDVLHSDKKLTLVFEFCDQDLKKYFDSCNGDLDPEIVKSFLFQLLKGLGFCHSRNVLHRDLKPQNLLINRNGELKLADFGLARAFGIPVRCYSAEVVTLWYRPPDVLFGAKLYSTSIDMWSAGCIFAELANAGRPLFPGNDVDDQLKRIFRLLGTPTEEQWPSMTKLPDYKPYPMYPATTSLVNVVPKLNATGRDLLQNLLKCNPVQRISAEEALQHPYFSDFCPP
Chain of Cyclin-dependent kinase 5/CDK5 activator 1 (Homo sapiens) (Q15078 99-307 partner limits assumed): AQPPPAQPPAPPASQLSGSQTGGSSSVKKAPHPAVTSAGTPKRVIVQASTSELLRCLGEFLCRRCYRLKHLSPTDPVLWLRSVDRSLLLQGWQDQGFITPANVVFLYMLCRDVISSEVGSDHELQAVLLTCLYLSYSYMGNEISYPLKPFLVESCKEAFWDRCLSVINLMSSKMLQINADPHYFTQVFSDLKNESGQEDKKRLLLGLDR

[57] = Binding affinity to central-type GABA(A) receptor muscimol binding site at 1 uM by radioligand displacement assay
[58] = Binding affinity to L-type calcium channel benzothiazepine binding site at 1 uM by radioligand displacement assay
[59] = Binding affinity to GABA(A) receptor RO-15-1788 binding site at 1 uM by radioligand displacement assay
[60] = Binding affinity to PDE5 at 1 uM by radioligand displacement assay
[61] = Binding affinity to central-type GABA(A) receptor flunitrazepam binding site at 1 uM by radioligand displacement assay
[62] = molecular target: Nitric oxide synthase 1 (Homo sapiens) (UniProt P29475); test: Binding affinity to nNOS at 1 uM by radioligand displacement assay
[63] = Binding affinity to P2Y receptor at 1 uM by radioligand displacement assay
[64] = molecular target: Histamine H1 receptor (Homo sapiens) (UniProt P35367); test: Binding affinity to histamine receptor H1 at 1 uM by radioligand displacement assay
[65] = molecular target: Sodium-dependent noradrenaline transporter (Homo sapiens) (UniProt P23975); test: Binding affinity to NET at 1 uM by radioligand displacement assay
[66] = Binding affinity to N-type calcium channel at 1 uM by radioligand displacement assay
[67] = molecular target: 5-hydroxytryptamine receptor 2C (Homo sapiens) (UniProt P28335); test: Binding affinity to 5HT2C receptor at 1 uM by radioligand displacement assay
[68] = molecular target: 5-hydroxytryptamine receptor 1A (Homo sapiens) (UniProt P08908); test: Binding affinity to 5HT1A receptor at 1 uM by radioligand displacement assay
[69] = Binding affinity to peripheral benzodiazepine receptor at 1 uM by radioligand displacement assay
[70] = Binding affinity to sodium channel site 2 at 1 uM by radioligand displacement assay
[71] = Binding affinity to PDE3 at 1 uM by radioligand displacement assay
[72] = molecular target: Alpha-1A adrenergic receptor (Homo sapiens) (UniProt P35348); test: Binding affinity to alpha1A adrenergic receptor at 1 uM by radioligand displacement assay

## Cc1nn2c3c(cnc2c1S(=O)(=O)c1ccccc1)CN(C)CC3
[1]
  Ki: 60.4 nM

## CNc1nn2c3c(cnc2c1S(=O)(=O)c1ccccc1)CN(C)CC3
[2]
  Activity: inactive
[3]
  IC50: 54200 nM
[4]
  inhibition: Dose-dependent effect
[4]; read-out: IC50
  IC50: 6160 nM
[5]
  Ki: 1.8 nM
[6]
  Activity: 50%
[1]
  Ki: 0.39 nM

## CSc1nn2c3c(cnc2c1S(=O)(=O)c1ccc(F)cc1)CN(C)CC3
[1]
  Ki: 35.7 nM

## Cc1nn2cc3c(nc2c1S(=O)(=O)c1ccccc1)CCN(C)C3
[1]
  Ki: > 10000 nM

## CNc1nn2cc3c(nc2c1S(=O)(=O)c1ccccc1)CCNC3
[5]
  Ki: 2.1 nM

## CNc1nn2cc3c(nc2c1S(=O)(=O)c1ccccc1)CCN(C)C3
[7]
  Activity: inactive
[8]
  Activity: inactive
[9]
  Activity: inactive
[10]
  Activity: inactive
[11]
  Activity: inactive
[12]
  Activity: inactive
[13]
  Activity: inactive
[14]
  Activity: inactive
[15]
  Activity: inactive
[16]
  Activity: inactive
[17]
  Activity: inactive
[18]
  Activity: inactive
[19]
  Activity: inactive
[20]
  Activity: inactive
[21]
  Activity: inactive
[22]
  Activity: inactive
[23]
  Activity: inactive
[24]
  Activity: inactive
[25]
  Activity: inactive
[26]
  Activity: inactive
[27]
  Activity: inactive
[28]
  Activity: inactive
[29]
  Activity: Not Active
[30]
  Activity: inactive
[31]
  Activity: inactive
[32]
  Activity: Not Active
[33]
  Activity: inactive
[34]
  Activity: inactive
[35]
  Activity: inactive
[36]
  Activity: inactive
[37]
  Activity: inactive
[4]; hek293
  IC50: Not Active
[38]
  Activity: inactive
[39]
  Activity: inactive
[40]
  Activity: inactive
[41]
  Activity: inactive
[42]
  Activity: inactive
[43]
  Activity: inactive
[44]
  Activity: inactive
[45]
  Activity: inactive
[5]
  Ki: 14.3 nM
[46]
  Activity: inactive
[47]
  Activity: inactive
[48]
  Activity: inactive
[49]
  Activity: inactive
[50]
  Activity: inactive
[51]
  Activity: inactive
[52]
  Activity: inactive
[53]
  Activity: inactive
[54]
  Activity: inactive
[55]
  Activity: inactive
[56]
  Activity: inactive
[57]
  Activity: inactive
[58]
  Activity: inactive
[59]
  Activity: inactive
[60]
  Activity: inactive
[61]
  Activity: inactive
[62]
  Activity: inactive
[6]
  Activity: inactive
[1]
  Ki: 0.82 nM
[63]
  Activity: inactive
[64]
  Activity: inactive
[65]
  Activity: inactive
[66]
  Activity: inactive
[67]
  Activity: inactive
[68]
  Activity: inactive
[69]
  Activity: inactive
[70]
  Activity: inactive
[71]
  Activity: inactive
[72]
  Activity: inactive

## CSc1nn2c3c(cnc2c1S(=O)(=O)c1ccccc1)CN(C)CC3
[5]
  Ki: 14.8 nM
[1]
  Ki: 7.7 nM

## CSc1nn2cc3c(nc2c1S(=O)(=O)c1ccc(F)cc1)CCN(C)C3
[5]
  Ki: 1160 nM

## CNc1nn2c3c(cnc2c1S(=O)(=O)c1ccccc1)CNCC3
[5]
  Ki: 1.9 nM

## CSc1nn2cc3c(nc2c1S(=O)(=O)c1ccccc1)CCN(C)C3
[5]
  Ki: 492 nM
